From ChEMBL document CHEMBL6078660, “Goondomycins A-H: Carbocyclic ansa-Polyketides from an Australian Pasture Streptomyces with Selective Activity against Dirofilaria immitis” (J Nat Prod, 2024)
Peptide text beside a SMILES is read from it. * marks the point of attachment. NHCH2CH2OH = OCCN*; For = O=C*

Assays:
[1] = tested on: Dirofilaria immitis; experiment: Anthelmintic activity against Dirofilaria immitis L4 stage assessed as inhibition of motility incubated for approximately 72 hrs; format: functional, organism-based
[2] = tested on: Dirofilaria immitis; experiment: Anthelmintic activity against Dirofilaria immitis microfilaria stage assessed as inhibition of motility incubated for approximately 72 hrs; format: functional, organism-based
[3] = Cytotoxicity against human SW620 cells incubated for 24 hrs by MTT assay; format: toxicity, cell-based, SW-620
[4] = Cytotoxicity against human NCI-H460 cells incubated for 24 hrs by MTT assay; format: toxicity, cell-based
[5] = tested on: Escherichia coli; experiment: Antibacterial activity against Escherichia coli ATCC 11775 assessed as inhibition of bacterial growth incubated for 24 hrs by spectrophotometer based analysis; format: functional, organism-based; details: ATCC 11775, 24 h
[6] = tested on: Candida albicans; experiment: Antifungal activity against Candida albicans ATCC 10231 assessed as inhibition of fungal growth incubated for 48 hrs by spectrophotometer based analysis; format: functional, organism-based; details: ATCC 10231, 48 h
[7] = tested on: Staphylococcus aureus; experiment: Antibacterial activity against Staphylococcus aureus ATCC 25923 assessed as inhibition of bacterial growth incubated for 24 hrs by spectrophotometer based analysis; format: functional, organism-based; details: ATCC 25923, 24 h
[8] = tested on: Haemonchus contortus; experiment: Anthelmintic activity against Haemonchus contortus L1 to L3 stage assessed as larvae development incubated for 4 days; format: functional, organism-based; details: 96 h

Work on `CC[C@]1([C@H]2O[C@H]([C@@H]3O[C@](O)(CO)[C@@H](C)C[C@H]3C)C[C@H]2C)CC[C@@H]([C@@]2(C)CC[C@@]3(C[C@@H](O)[C@H](C)[C@H]([C@H](C)[C@H](OC)[C@H](C)C(=O)O)O3)O2)O1` yielded an EC50 [1] of 0.4 µM.
`CC(C)C[C@H](NC(=O)[C@H](C)NC(=O)CNC(=O)[C@@H](NC=O)C(C)C)C(=O)N[C@@H](C)C(=O)N[C@H](C(=O)N[C@H](C(=O)N[C@H](C(=O)N[C@@H](Cc1c[nH]c2ccccc12)C(=O)N[C@@H](CC(C)C)C(=O)N[C@@H](Cc1c[nH]c2ccccc12)C(=O)N[C@@H](CC(C)C)C(=O)N[C@@H](Cc1c[nH]c2ccccc12)C(=O)N[C@@H](CC(C)C)C(=O)N[C@@H](Cc1c[nH]c2ccccc12)C(=O)NCCO)C(C)C)C(C)C)C(C)C` (For-VGALAVVVWLWLWLW-NHCH2CH2OH) gave an EC50 [2] of 0.1 µM.
For `CC1=C2O[C@]3(O)C(N)=C2C(=C(O)C1=O)[C@@H]1O[C@@H](CC[C@H](C)/C=C(\C)C[C@@H](C)C[C@@H]3C)[C@H](C)[C@H](O)[C@@H]1C`, the IC50 at 24 h [3] was > 30 µM, the IC50 at 24 h [4] was > 30 µM and the IC50 [5] was > 30 µM. For the same molecule, the IC50 [6] was > 30 µM, the IC50 [7] was ≥ 3.6 µM and the EC50 [2] was 0.5 µM. It also gave an EC50 [1] of 5 µM and an EC50 [8] of 24 µM.
With `CC1=C(O)C(=O)c2c3sc(c2C1=O)C(=O)[C@@H](C)C[C@H](C)C/C(C)=C/[C@@H](C)CC[C@@H](O)[C@H](C)[C@H](O)[C@@H]3C` the IC50 at 24 h [3] was > 30 µM, the IC50 at 24 h [4] was > 30 µM and the IC50 [5] was > 30 µM. The IC50 [6] was > 30 µM, the IC50 [7] was ≥ 3.6 µM and the EC50 [2] was 2.1 µM. It also gave an EC50 [1] of 19 µM and an EC50 [8] of 47 µM.
For `CC1=C(O)C(=O)C2=C(C1=O)[C@H](S(=O)(=O)O)C(=O)[C@@H](C)C[C@H](C)C/C(C)=C/[C@@H](C)CC[C@@H]1O[C@@H]2[C@@H](C)[C@@H](O)[C@H]1C`, the IC50 at 24 h [3] was > 30 µM, the IC50 at 24 h [4] was > 30 µM and the IC50 [5] was > 30 µM. The IC50 [6] was > 30 µM, the IC50 [7] was ≥ 3.6 µM and the EC50 [2] was 21 µM. The EC50 [1] was 44 µM and the EC50 [8] was 44 µM.
For `CC1=c2oc3c(O)c2=C(C(=O)C1=O)[C@@H]1O[C@@H](CC[C@H](C)/C=C(\C)C[C@@H](C)C[C@@H]3C)[C@H](C)[C@H](O)[C@@H]1C`, the IC50 at 24 h [3] was > 30 µM, the IC50 at 24 h [4] was > 30 µM and the IC50 [5] was > 30 µM. The IC50 [6] was > 30 µM, the IC50 [7] was ≥ 3.6 µM and the EC50 [2] was 0.2 µM. For the same molecule, the EC50 [1] was 1.8 µM and the EC50 [8] was 43 µM.
In the case of `C/C1=C\[C@@H](C)CC[C@@H]2O[C@@H](c3c(O)c(O)c(C)c4c3C(=O)[C@@](O)(O4)[C@@H](C)C[C@H](C)C1)[C@@H](C)[C@@H](O)[C@H]2C`, the IC50 at 24 h [3] is reported as > 30 µM, the IC50 at 24 h [4] is reported as > 30 µM and the IC50 [5] is reported as > 30 µM. For the same molecule, the IC50 [6] was > 30 µM, the IC50 [7] was ≥ 3.6 µM and the EC50 [2] was 1.3 µM. For the same molecule, the EC50 [1] was 24 µM and the EC50 [8] was 50 µM.
For `CC(=O)N[C@@H](CSC1=C2C3=C(C)C(=O)C(O)=C2[C@@H]2O[C@@H](CC[C@H](C)/C=C(\C)C[C@@H](C)C[C@H](C)[C@]1(O)O3)[C@H](C)[C@H](O)[C@@H]2C)C(=O)O`, the IC50 at 24 h [3] was > 30 µM, the IC50 at 24 h [4] was > 30 µM and the IC50 [5] was > 30 µM. For the same molecule, the IC50 [6] was > 30 µM, the IC50 [7] was ≥ 3.6 µM and the EC50 [2] was 3.6 µM. For the same molecule, the EC50 [1] was 22 µM and the EC50 [8] was 39 µM.
Molecule `CC[C@H](C)[C@H]1O[C@]2(CC[C@@H]1C)C[C@@H]1C[C@@H](C/C=C(\C)[C@@H](O[C@H]3C[C@H](OC)[C@@H](O[C@H]4C[C@H](OC)[C@@H](O)[C@H](C)O4)[C@H](C)O3)[C@@H](C)/C=C/C=C3\CO[C@@H]4[C@H](O)C(C)=C[C@@H](C(=O)O1)[C@]34O)O2` has an EC50 [8] of 0.001 µM.
For `CSC1=C2C3=C(C)C(=O)C(O)=C2[C@@H]2O[C@@H](CC[C@H](C)/C=C(\C)C[C@@H](C)C[C@H](C)[C@]1(O)O3)[C@H](C)[C@H](O)[C@@H]2C`, the IC50 at 24 h [3] was 2.4 µM, the IC50 at 24 h [4] was 13.5 µM and the IC50 [5] was > 30 µM. The IC50 [6] was > 30 µM, the IC50 [7] was ≥ 3.6 µM and the EC50 [2] was 0.3 µM. The EC50 [1] was 1.4 µM and the EC50 [8] was 30 µM.
For `CC1=C2O[C@]3(O)C=C2C(=C(O)C1=O)[C@@H]1O[C@@H](CC[C@H](C)/C=C(\C)C[C@@H](C)C[C@@H]3C)[C@H](C)[C@H](O)[C@@H]1C`, the IC50 at 24 h [3] was > 30 µM, the IC50 at 24 h [4] was > 30 µM and the IC50 [5] was > 30 µM. The IC50 [6] was > 30 µM, the IC50 [7] was ≥ 3.6 µM and the EC50 [2] was 4.1 µM. The EC50 [1] was 18 µM and the EC50 [8] was 49 µM.
